Test results reported in patent US9499568B2, “Heterocyclic compound and use thereof” (Takeda Pharmaceutical Company Limited, priority 2010, dated 2016).

Each compound was assayed on MAP-induced hyperlocomotion in male ICR mice (assay: Inhibition of methamphetamine (MAP)-induced hyperlocomotion). Settings: compound 10 mg/kg p.o. 60 min before MAP 2 mg/kg s.c., FIG. 1.
Format: in vivo
Protocol: Male ICR mice were supplied by CLEA Japan, Inc (Japan). After arrival to the vivarium, animals were allowed a minimum of 1 week for acclimation. They were housed under a 12:12-h light/dark cycle in a temperature- and humidity-controlled laboratory and allowed food and water ad libitum.
A test compound was suspended in 0.5% methylcellulose in distilled water and orally administered (p.o.). Methamphetamine (Dainippon Sumitomo Pharma Co., Ltd.) was dissolved in saline and subcutaneously administered (s.c.). All drugs were dosed in a volume of 10 mL/kg body weight for mice.
The widely used animal models of psychosis have been the measurement of the extent of hyperlocomotion induced by psychostimulants (e.g., amphetamine, cocaine, methamphetamine, MK-801 and phencyclidine) in rodents (Psychopharmacology 1999, vol. 145: 237-250). 4 compounds (A, B, C, D) were tested for its ability to antagonize MAP-induced hyperlocomotion in mice. Male ICR mice were habituated in the locomotor chambers with infrared sensors (BrainScienceldea Co., Ltd. Japan) to the experiment. After the habituation, animals were treated with either vehicle or the compounds (10 mg/kg, p.o.), and MAP (2 mg/kg, s.c.) was administrated 60 min later. Locomotion activities were measured, and accumulated counts (120 min after administration of MAP) were calculated in each treatment group. All data were represented as means plus the standard errors of the means (n=3-9) and analyzed using Student's t-test with significance set at **P<0.01 and ***P<0.001 or Welch's t-test with significance set at ^$P<0.05, ^$$P<0.01 and ^$$$P<0.001.

| Compound | inhibition of MAP-induced hyperlocomotion (accumulated locomotion counts 0-120 min) |
| --- | --- |
| O=S1(=O)CCN2C=CC=C(c3ccc(Oc4ccccc4)cc3)C2=N1 [A, 9-(4-phenoxyphenyl)-3,4-dihydropyrido[2,1-c][1,2,4]thiadiazine 2,2-dioxide] | significant inhibition |
| Cc1ccc(Oc2ccc(C3=CC=CN4CCS(=O)(=O)N=C34)cc2)cc1 [B, 9-[4-(4-methylphenoxy)phenyl]-3,4-dihydropyrido[2,1-c][1,2,4]thiadiazine 2,2-dioxide] | significant inhibition |
| CC1=CN2CCS(=O)(=O)N=C2C(c2ccc(OC3CCCCC3)cc2)=N1 [C, 9-[4-(cyclohexyloxy)phenyl]-7-methyl-3,4-dihydropyrazino[2,1-c][1,2,4]thiadiazine 2,2-dioxide] | significant inhibition |
| O=S1(=O)CCN2C=CC=C(c3ccc(OC4CCCCC4)cc3)C2=N1 [D, 9-[4-(cyclohexyloxy)phenyl]-3,4-dihydropyrido[2,1-c][1,2,4]thiadiazine 2,2-dioxide] | significant inhibition |
